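Results reflect a 48-hour exposure of cells in 96-well plates to compound at five concentrations. Definition used: TGI = concentration required for complete inhibition of growth.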
Assays:
Test in all cases: NCI tumour cell line growth inhibition, 48 h
[1] = tested on: DLD-1 colon
[2] = tested on: DMS 273 small cell lung
[3] = tested on: HOP-18 NSCLC
[4] = tested on: KM20L2 colon
[5] = tested on: SNB-78 CNS
[6] = tested on: RXF-631 renal

## Nc1nc(N)c(N=Nc2ccccc2)c(=O)[nH]1
[1]
  TGI: > 100 µM
[2]
  TGI: > 100 µM
[3]
  TGI: > 100 µM
[4]
  TGI: > 100 µM
[5]
  TGI: 71.4 µM

## O=C(Nc1ccc(C(F)(F)F)cc1[N+](=O)[O-])C(=O)Nn1c(=S)[nH]c2ccccc2c1=O
[1]
  TGI: > 100 µM
[2]
  TGI: > 100 µM
[3]
  TGI: > 100 µM
[4]
  TGI: > 100 µM
[6]
  TGI: > 100 µM
[5]
  TGI: > 100 µM

— PubChem BioAssay (NCI)
